The source of these data is PMC9809337, “Discovery of HCD3514 as a potent EGFR inhibitor against C797S mutation in vitro and in vivo” (Journal of Cancer, 2023).

Where two headings read alike, the source gives them in different places. Bounds are passed on as bounds.

Data set [1] deals with BaF3-EGFR^19del/T790M/C797S mouse xenograft tumors. The class given is in vivo. The following applies: for phosphorylation of EGFR and Erk in tumors (Western blot): tumor tissues collected 2 h after last treatment. The method, then: Western blotting was performed as described previously. Cells were collected by trypsin and then lysed with SDS lysis buffer. Tumor tissues were homogenized in RIPA buffer on ice, followed by centrifugation at 12,000 x g for 30 min.
Mice were sacrificed and tumors were harvested for Western blot analysis. All animal study was approved by the Institutional Animal Care and Use Committee of the Shanghai Institute of Materia Medica and strictly performed according to the institutional ethical guidelines on animal care.
Background: Immunoblotting shows a protein as a band on a membrane.

Data set [2] deals with EGFR phosphorylation in triple mutant BaF3 cells and PC-9-OR cells. As to the kind of experiment: Western blot of EGFR phosphorylation in EGFR^C797S triple mutant cells. The class given is cell-based. The following applies: treated 2 h.
Data set [3] relates to BaF3-EGFR^L858R/T790M/C797S cells. As to the kind of experiment: Cell proliferation assay (CCK8/SRB). Conditions: Ba/F3 EGFR-L858R, 72 h, read-out: IC50, antiproliferation activity.
The subject of data set [4] is BaF3-EGFR^19del/T790M/C797S cells. Kind of data set: Cell proliferation assay (CCK8/SRB). Conditions: 72 h, read-out: IC50, antiproliferation activity.
The subject of the next data set is BaF3 parental cells. Kind of data set: Cell proliferation assay (CCK8/SRB). The following applies: Mus musculus, BaF3, 72 h, read-out: IC50, antiproliferation activity.
In data set [5] the test system is PC-9-OR cells. As to the kind of experiment: Cell proliferation assay (CCK8/SRB). The following applies: PC9-OR, 72 h, read-out: IC50, antiproliferation activity.
In data set [6] the test system is BaF3-EGFR^L858R/T790M cells. Kind of data set: Cell proliferation assay (CCK8/SRB). Conditions: Ba/F3 EGFR-L858R, 72 h, read-out: IC50, antiproliferation activity.
The test system of data set [7] is BaF3-EGFR^19del/T790M cells. Kind of data set: Cell proliferation assay (CCK8/SRB). The following applies: 72 h, read-out: IC50, antiproliferation activity.
A further data set concerns NCI-H1975 cells. As to the kind of experiment: Cell proliferation assay (CCK8/SRB). Conditions: Homo sapiens, NCI-H1975, 72 h, read-out: IC50, antiproliferation activity.
A further data set concerns the target EGFR^L858R/T790M/C797S (Homo sapiens, UniProt P00533, C797S/L858R/T790M). As to the kind of experiment: In vitro kinase assay (ELISA). It counts as biochemical. Conditions: mean ± SD of three independent experiments, read-out: IC50, kinase inhibitory activity against EGFR^L858R/T790M/C797S. A general note: ELISA stands for enzyme-linked immunosorbent assay.
The next data set has as its target EGFR^19del/T790M/C797S (Homo sapiens, UniProt P00533, C797S/DEL746-750/T790M). Kind of data set: In vitro kinase assay (ELISA). It counts as biochemical. The following applies: mean ± SD of three independent experiments, read-out: IC50, kinase inhibitory activity against EGFR^19del/T790M/C797S.
Another data set has as its target EGFR^L858R/T790M (Homo sapiens, UniProt P00533, L858R/T790M). Kind of data set: In vitro kinase assay (ELISA). The class given is biochemical. The following applies: mean ± SD of three independent experiments, read-out: IC50, kinase inhibitory activity against EGFR^L858R/T790M.
For the next data set, the target named is EGFR^19del/T790M (Homo sapiens, UniProt P00533, DEL746-750/T790M). Kind of data set: In vitro kinase assay (ELISA). Conditions: mean ± SD of three independent experiments, read-out: IC50, kinase inhibitory activity against EGFR^19del/T790M. It counts as biochemical.
The test system of data set [8] is BaF3-EGFR^L858R/T790M/C797S cells. As to the kind of experiment: Cell apoptosis analysis (Annexin V-FITC, flow cytometry). It counts as cell-based. The following applies: 48 h. The method, then:
(§1) Then cells were collected and washed with PBS and measured by Annexin V-FITC Apoptosis detection kit (cat. no. A211-02, Vazyme Biotechnology). Signals were measured using FACS Calibur flow cytometer, and FlowJo software was used to analyze the data.
In general terms: Flow cytometry measures light scatter and fluorescence of single cells or particles in a stream.

Data set [9] has as its system EGFR phosphorylation in BaF3-EGFR^L858R/T790M, BaF3-EGFR^19del/T790M and NCI-H1975 cells. Kind of data set: Western blot of EGFR phosphorylation in EGFR^T790M double mutant cells. It counts as cell-based. Conditions: treated 2 h. As for the experimental part: (§2) Western blotting was performed as described previously. Cells were collected by trypsin and then lysed with SDS lysis buffer. Tumor tissues were homogenized in RIPA buffer on ice, followed by centrifugation at 12,000 x g for 30 min. The concentration of protein was measured with BCA protein assay kit (cat. no. 23227, Thermo Fisher Scientific). After heating at 100 °C for 15 min, protein samples were separated on 8-12% SDS-PAGE gels, and then transferred to nitrocellulose membranes (Life Technologies). Membranes were blocked in 5% nonfat milk-TBST and immunoblotted with primary antibodies against phospho-EGFR (Tyr1068; dilution, 1:500; cat. no. 2234L, CST), EGFR (dilution, 1:1000; cat. no. 4267S, CST), PARP (dilution, 1:1000; cat. no. 9542S, CST), caspase-3 (dilution, 1:1000; cat. no. 9662S, CST), cleaved caspase-3 (dilution, 1:1000; cat. no. 9664S, CST), phospho-Erk (Thr202/Tyr204; dilution, 1:1000; cat. no. 4370S, CST), Erk (dilution, 1:1000; cat. no. 4695S, CST) and β-actin (dilution, 1:20000; cat. no. 60008-1-Ig, Proteintech) at 4 °C overnight and then incubated with secondary antibodies (cat. no. 111-035-003, Jackson).

The subject of data set [10] is cleaved caspase-3 and cleaved PARP in triple mutant BaF3 and PC-9-OR cells. As to the kind of experiment: Western blot of apoptosis-related proteins. The class given is cell-based. As for the experimental part: as §2
Data set [11] deals with EGFR^WT (Homo sapiens, UniProt P00533). As to the kind of experiment: In vitro kinase assay (ELISA).
The subject of data set [12] is EGFR^WT. Kind of data set: In vitro kinase assay (ELISA). The following applies: EGFR^C797S triple mutants versus EGFR^WT, kinase IC50.
Another data set relates to MRC-9 cells. As to the kind of experiment: Cell proliferation assay (CCK8/SRB). The following applies: Homo sapiens, MRC9, 72 h, read-out: IC50, antiproliferative activity.
The subject of a further data set is GSE-1 cells. Kind of data set: Cell proliferation assay (CCK8/SRB). The following applies: Homo sapiens, 72 h, read-out: IC50, antiproliferative activity.
Data set [13] concerns BaF3-EGFR^19del/T790M/C797S cells. Kind of data set: Cell apoptosis analysis (Annexin V-FITC, flow cytometry). The following applies: 3 μM, 48 h. It counts as cell-based. The method, then:
as §1

The test system of data set [14] is PC-9-OR cells. Described as above. The class given is cell-based. Conditions: 3 μM, 48 h. As for the experimental part:
as §1

The mark [15] stands for this setting: triple mutant BaF3 cells and PC-9-OR cells.

Chain of EGFR^19del/T790M (P00533 with tags, fused parts or gaps DEL746-750/T790M limits assumed): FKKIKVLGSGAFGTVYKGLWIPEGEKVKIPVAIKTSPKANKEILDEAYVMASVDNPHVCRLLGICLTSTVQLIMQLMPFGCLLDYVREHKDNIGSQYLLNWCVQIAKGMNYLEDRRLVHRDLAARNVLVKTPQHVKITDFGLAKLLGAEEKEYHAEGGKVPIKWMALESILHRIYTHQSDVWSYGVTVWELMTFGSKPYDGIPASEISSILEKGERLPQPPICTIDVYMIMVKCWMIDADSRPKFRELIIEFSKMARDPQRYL
Chain of EGFR^19del/T790M/C797S (P00533 with tags, fused parts or gaps DEL746-750/T790M/C797S limits assumed): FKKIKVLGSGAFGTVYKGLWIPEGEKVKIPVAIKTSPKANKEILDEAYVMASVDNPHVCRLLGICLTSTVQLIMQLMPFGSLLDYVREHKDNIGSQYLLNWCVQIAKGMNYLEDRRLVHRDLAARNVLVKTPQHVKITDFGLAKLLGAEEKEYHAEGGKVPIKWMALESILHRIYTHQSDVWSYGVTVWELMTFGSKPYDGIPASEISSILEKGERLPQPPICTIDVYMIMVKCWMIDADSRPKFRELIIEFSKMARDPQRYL
Chain of EGFR^L858R/T790M/C797S (P00533 712-979 T790M/C797S/L858R limits assumed): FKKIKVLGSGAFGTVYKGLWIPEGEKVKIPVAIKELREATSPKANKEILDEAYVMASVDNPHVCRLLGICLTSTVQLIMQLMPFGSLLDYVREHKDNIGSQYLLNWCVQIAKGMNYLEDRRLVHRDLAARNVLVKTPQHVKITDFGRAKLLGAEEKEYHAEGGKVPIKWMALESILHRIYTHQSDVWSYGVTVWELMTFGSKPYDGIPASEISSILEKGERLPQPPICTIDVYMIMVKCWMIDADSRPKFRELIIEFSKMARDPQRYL
Chain of EGFR^WT (Homo sapiens, UniProt P00533) (P00533 712-979 limits assumed): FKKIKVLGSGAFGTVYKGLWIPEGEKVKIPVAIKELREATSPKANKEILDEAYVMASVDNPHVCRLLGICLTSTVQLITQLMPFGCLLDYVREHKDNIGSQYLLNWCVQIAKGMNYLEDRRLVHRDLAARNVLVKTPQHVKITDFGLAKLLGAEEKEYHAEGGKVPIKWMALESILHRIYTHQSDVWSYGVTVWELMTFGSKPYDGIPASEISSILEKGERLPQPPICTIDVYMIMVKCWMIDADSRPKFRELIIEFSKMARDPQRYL
Chain of EGFR^L858R/T790M (P00533 712-979 T790M/L858R limits assumed): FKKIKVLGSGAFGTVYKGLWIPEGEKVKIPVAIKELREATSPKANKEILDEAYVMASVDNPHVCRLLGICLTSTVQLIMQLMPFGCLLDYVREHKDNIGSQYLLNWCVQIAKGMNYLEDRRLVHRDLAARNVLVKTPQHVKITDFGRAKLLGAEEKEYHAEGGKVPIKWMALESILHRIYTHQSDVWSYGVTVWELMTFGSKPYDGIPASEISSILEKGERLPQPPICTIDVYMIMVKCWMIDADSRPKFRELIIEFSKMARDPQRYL

Turning to `C=CC(=O)Nc1cc(Nc2nccc(-c3cn(C)c4ccccc34)n2)c(OC)cc1N(C)CCN(C)C` [AZD9291, Osimertinib, reference compound], the “reduction of tumor growth compared to vehicle” value in [1] (25 mg/kg, oral, once a day, BALB/c nude mice) is listed as “did not show significant reduction of tumor growth”. In addition, the “phosphorylation of EGFR and Erk in tumors (Western blot)” value in [1] was “no obvious inhibitory activities of EGFR and Erk”. For the same compound, the “EGFR phosphorylation (Western blot)” value in data set [2] (1 μM, all three EGFR^C797S triple mutant cells) is “failed to suppress”. For the same compound, the IC50 is 5500 ± 330 nM in [3]; 5930 ± 780 nM in data set [4]; 3520 ± 920 nM with BaF3 parental cells; 6300 nM in the data set with PC-9-OR cells [5]; […] in data set [6]; […] in [7]. In addition, the IC50 with NCI-H1975 cells was […].

On to `CCS(=O)(=O)n1cc(-c2nc(Nc3ccc(N4CCC(N5CCN(C)CC5)CC4)c(OC(C)C)c3)ncc2Cl)c2ccccc21` [HCD3514], for which the IC50 on EGFR^L858R/T790M/C797S is 1 nM; on EGFR^19del/T790M/C797S, 2 nM; at EGFR^L858R/T790M, 4.9 nM; on EGFR^19del/T790M it was 8.9 nM; at EGFR^WT [11], 156 ± 6.9 nM; in data set [3], 350 nM. Moreover, the IC50 worked out at 250 nM in [4]; 1310 nM in the data set with BaF3 parental cells; 480 nM with PC-9-OR cells [5]; 1030 nM in the data set with MRC-9 cells; 1040 nM in the data set with GSE-1 cells; 660 nM in data set [6]. The IC50 in data set [7] worked out at 520 nM; with NCI-H1975 cells, 490 nM. The apoptosis rate came out at 72.39% in [8] (1 μM) and 98.27% in data set [8] (3 μM). The “tumor growth inhibition (TGI)” value in data set [1] (50 mg/kg, oral, once a day, BALB/c nude mice) is on record as 22.53%; in data set [1] (75 mg/kg, oral, once a day, BALB/c nude mice), 37.73%. Besides, the “tolerability, body weight throughout the study” value in data set [1] (50 and 75 mg/kg, oral, once a day, BALB/c nude mice) is “well-tolerated, with body weight maintained throughout the study”. Besides, the tumor weight entry in data set [1] (50 and 75 mg/kg, tumors harvested 2 h after last oral administration) is recorded as “reduced with the increased concentration”. In addition, the “phosphorylation of EGFR and Erk in tumors (Western blot)” value in data set [1] is “decreased phosphorylation of EGFR and the downstream signaling phosphorylation of Erk level”. The “EGFR phosphorylation (Western blot)” value in data set [2] (setting [15]) was “potently and dose-dependently suppressed”; in data set [9] (BaF3-EGFR^L858R/T790M and BaF3-EGFR^19del/T790M cells) it was “dose-dependently suppressed”. In addition, the “expression of phospho-EGFR (Western blot)” value in data set [9] (NCI-H1975 cells) is “down-regulated”. The “expression of cleaved caspase-3 and cleaved PARP (Western blot)” value in data set [10] was “dose-dependently up-regulated”. Further, the “selectivity over EGFR^WT” value with EGFR^WT [12] was “more than 78 fold”.

`COc1cc(N2CCC(N3CCN(C)CC3)CC2)ccc1Nc1ncc(Cl)c(Nc2ccccc2P(C)(C)=O)n1` [brigatinib]: the apoptosis rate result (in data set [13]; in [8] (3 μM); with PC-9-OR cells [14]) was “around 80%” throughout. For the same compound, the “EGFR phosphorylation (Western blot)” value in data set [2] (setting [15]) was “significantly reduced”. Also, the IC50 was found to be 610 ± 210 nM in data set [3], 310 ± 90 nM in data set [4], 4720 ± 2150 nM in the data set on BaF3 parental cells and 400 nM in the data set on PC-9-OR cells [5].
